Test results: ChEMBL document CHEMBL3826947, “New 4-Acyl-1-phenylaminocarbonyl-2-phenylpiperazine Derivatives as Potential Inhibitors of Adenovirus Infection. Synthesis, Biological Evaluation, and Structure-activity Relationships” (J Med Chem, 2016)

Legend:
Human adenovirus 5 [1] = assay: Antiviral activity against HAdV5 infected in 293beta5 cells assessed as inhibition of plaque formation at 10 uM after 7 days by GFP reporter gene assay relative to control; format: functional; details: Human mastadenovirus C, 293beta5, 168 h
Human adenovirus 5 [2] = assay: Antiviral activity against HAdV5 infected in human A549 cells assessed as inhibition of viral entry at 50 uM preincubated for 45 mins followed by cell addition measured after 48 hrs by GFP reporter gene assay relative to control; format: functional; details: Human mastadenovirus C
[3] = Cytotoxicity against human A549 cells assessed as cell viability after 48 hrs by Alamar blue assay; format: cell-based

Row | Compound | inhibition at 10 µM (Human adenovirus 5 [1]) [%] | inhibition at 50 µM (Human adenovirus 5 [2]) [%] | CC50 at 48 h [3] [µM]
1 | O=C(c1cc2ccccc2o1)N1CCN(C(=O)Nc2ccc(F)cc2)C(c2ccccc2)C1 (stereo not drawn) | 99 | 88 | 12.5
2 | CC1CN(C(=O)c2cc3ccccc3o2)CCN1C(=O)Nc1ccccc1Br (stereo not drawn) | 56 | 44 | 
3 | CC1CN(C(=O)c2ccccc2)CCN1C(=O)Nc1ccc([N+](=O)[O-])cc1 (stereo not drawn) | 72 | 50 | 
4 | CC1CN(C(=O)c2ccccc2)CCN1C(=S)Nc1ccc([N+](=O)[O-])cc1 (stereo not drawn) | 94 | 41 | 31.4
5 | CC1CN(C(=O)c2cc3ccccc3o2)CCN1C(=O)Nc1ccc(F)cc1F (stereo not drawn) | 34 | 0 | 
6 | CC1CN(C(=O)C(C)(C)C)CCN1C(=S)Nc1ccc([N+](=O)[O-])cc1 (stereo not drawn) | 64 | < 20 | 
7 | COc1ccc(NC(=O)N2CCN(C(=O)c3ccccc3)CC2C)cc1 (stereo not drawn) | 0 | 50 | 
8 | CC1CN(C(=O)OC(C)(C)C)CCN1C(=O)Nc1ccc([N+](=O)[O-])cc1 (stereo not drawn) | 91 | 65 | 143
9 | CC(C)(C)OC(=O)N1CCN(C(=O)Nc2ccc(C(F)(F)F)cc2)C(c2ccccc2)C1 (stereo not drawn) | 71 | 75 | 42.1
10 | COc1ccc(NC(=O)N2CCN(C(=O)c3cc4ccccc4o3)CC2C)cc1 (stereo not drawn) | 34 | < 20 | 
11 | CC1CN(C(=O)OC(C)(C)C)CCN1C(=O)Nc1ccc(C(F)(F)F)cc1 (stereo not drawn) | 31 | 57 | 137
12 | CC1CN(C(=O)c2cc3ccccc3o2)CCN1C(=O)Nc1ccc([N+](=O)[O-])cc1 (stereo not drawn) | 94 | 86 | 51.1
13 | COc1ccc(NC(=O)N2CCN(C(=O)C(C)(C)C)CC2c2ccccc2)cc1 (stereo not drawn) | 70 | 0 | 199
14 | COc1ccc(NC(=O)N2CCN(C(=O)C(C)(C)C)CC2C)cc1 (stereo not drawn) | 0 | < 20 | 
15 | COc1ccc(C(=O)N2CCN(C(=O)OC(C)(C)C)CC2C)cc1 (stereo not drawn) | 34 | < 20 | 
16 | CC1CN(C(=O)c2cc3ccccc3o2)CCN1C(=O)Nc1ccc(C(F)(F)F)cc1 (stereo not drawn) | 92 | 60 | 82.2
17 | O=C(c1cc2ccccc2o1)N1CCN(C(=O)Nc2ccc(C(F)(F)F)cc2)C(c2ccccc2)C1 (stereo not drawn) | 100 | 61 | 70.7
18 | CC1CN(C(=O)C(C)(C)C)CCN1C(=O)c1ccc([N+](=O)[O-])cc1 (stereo not drawn) | 23 | < 20 | 
19 | COc1ccc(C(=O)N2CCN(C(=O)c3ccccc3)CC2C)cc1 (stereo not drawn) | 0 | 0 | 
20 | COc1ccc(NC(=O)N2CCN(C(=O)OC(C)(C)C)CC2c2ccccc2)cc1 (stereo not drawn) | 79 | 39 | 133
21 | COc1ccccc1NC(=O)N1CCN(C(=O)c2cc3ccccc3o2)CC1C (stereo not drawn) | 16 | 0 | 
22 | CC(C)(C)OC(=O)N1CCN(C(=O)Nc2ccc(Cl)cc2)C(c2ccccc2)C1 (stereo not drawn) | 86 | 96 | 17.1
23 | COc1ccc(C(=O)N2CCN(C(=O)C(C)(C)C)CC2C)cc1 (stereo not drawn) | 0 | < 20 | 

Row | Compound | inhibition at 10 µM (Human adenovirus 5 [1]) [%] | inhibition at 50 µM (Human adenovirus 5 [2]) [%] | CC50 at 48 h [3] [µM]
24 | COc1ccc(NC(=O)N2CCN(C(=O)OC(C)(C)C)CC2C)cc1 (stereo not drawn) | 49 |  | 
25 | CC(C)(C)OC(=O)N1CCN(C(=O)Nc2cc(C(F)(F)F)ccc2Cl)C(c2ccccc2)C1 (stereo not drawn) | 100 | 89 | 93.4
26 | CC1CN(C(=O)c2cc3ccccc3o2)CCN1C(=O)Nc1ccccc1[N+](=O)[O-] (stereo not drawn) | 91 | 0 | 203
27 | CC1CN(C(=O)OC(C)(C)C)CCN1C(=O)Nc1ccc(Cl)cc1 (stereo not drawn) | 62 | 37 | 150
28 | CC1CN(C(=O)c2cc3ccccc3o2)CCN1C(=O)Nc1ccc(F)cc1 (stereo not drawn) | 92 | 0 | 220
29 | CC1CN(C(=O)OC(C)(C)C)CCN1C(=O)Nc1ccccc1[N+](=O)[O-] (stereo not drawn) | 50 | 0 | 
30 | CC(C)(C)OC(=O)N1CCN(C(=O)Nc2ccc(F)cc2)C(c2ccccc2)C1 (stereo not drawn) | 76 | 70 | 110
31 | CC1CN(C(=O)c2ccccc2)CCN1C(=O)c1ccc([N+](=O)[O-])cc1 (stereo not drawn) | 0 | < 20 | 
32 | CC(C)(C)C(=O)N1CCN(C(=O)Nc2ccc([N+](=O)[O-])cc2)C(c2ccccc2)C1 (stereo not drawn) | 44 | 60 | 102
33 | CC(C)(C)OC(=O)N1CCN(C(=O)Nc2ccc(Cl)c(C(F)(F)F)c2)C(c2ccccc2)C1 (stereo not drawn) | 100 | 93 | 27.5
34 | CC1CN(C(=O)C(C)(C)C)CCN1C(=O)Nc1ccc([N+](=O)[O-])cc1 (stereo not drawn) | 0 | 50 | 
35 | CC1CN(C(=O)OC(C)(C)C)CCN1C(=O)Nc1ccc(Cl)c(C(F)(F)F)c1 (stereo not drawn) | 100 | 72 | 20.8
36 | CC(C)(C)C(=O)N1CCN(C(=O)Nc2ccc(C#N)cc2)C(c2ccccc2)C1 (stereo not drawn) | 84 | 74 | 147
37 | CC1CN(C(=O)OC(C)(C)C)CCN1C(=O)Nc1cc(C(F)(F)F)ccc1Cl (stereo not drawn) | 96 | 31 | 63.5
38 | CC1CN(C(=O)OC(C)(C)C)CCN1C(=S)Nc1ccc([N+](=O)[O-])cc1 (stereo not drawn) | 100 | < 20 | 26.3
39 | CC1CN(C(=O)c2cc3ccccc3o2)CCN1C(=O)Nc1ccccc1 (stereo not drawn) | 11 | 0 | 
40 | CC(C)(C)OC(=O)N1CCN(C(=O)Nc2ccc(C#N)cc2)C(c2ccccc2)C1 (stereo not drawn) | 67 | 45 | 91.3
41 | CC1CN(C(=O)c2cc3ccccc3o2)CCN1C(=O)Nc1ccccc1F (stereo not drawn) | 51 | 0 | 
42 | CC1CN(C(=O)OC(C)(C)C)CCN1C(=O)c1ccc([N+](=O)[O-])cc1 (stereo not drawn) | 34 | < 20 | 
43 | CC1CN(C(=O)c2cc3ccccc3o2)CCN1C(=O)Nc1ccc(C#N)cc1 (stereo not drawn) | 83 | 78 | 118
44 | Cc1ccc(NC(=O)N2CCN(C(=O)OC(C)(C)C)CC2c2ccccc2)cc1 (stereo not drawn) | 63 | 65 | 165
45 | CC(C)(C)OC(=O)N1CCN(C(=O)Nc2ccccc2[N+](=O)[O-])C(c2ccccc2)C1 (stereo not drawn) | 100 | 62 | 82.2
46 | CC1CN(C(=O)c2cc3ccccc3o2)CCN1C(=O)Nc1ccc(Cl)cc1 (stereo not drawn) | 70 | 36 | 144
